This experiment deals with Leishmania tropica. As to the kind of experiment: Growth inhibition of multidrug-resistant Leishmania tropica overexpressing P-glycoprotein-like transporter at 60 uM. In kind it is functional. On the set-up: scale not given: the % may be the effect or the level left.

SMILES strings stand for the structures.

In the case of `CC(=O)OC[C@]12[C@H](OC(C)=O)C(=O)[C@@H]3[C@@H](OC(C)=O)[C@]1(O[C@@]3(C)COC(C)=O)[C@@](C)(O)[C@@H](OC(C)=O)[C@H](OC(C)=O)[C@@H]2OC(C)=O`, the Activity turned out to be 28%.

The values above are taken from ChEMBL document CHEMBL1159375, “Absolute configuration and complete assignment of 13C NMR data for new sesquiterpenes from Maytenus chiapensis” (2003).
